Experimental data from article PMC5024129, “Adipokinetic hormones and their G protein-coupled receptors emerged in Lophotrochozoa” (Scientific Reports, 2016).
Square brackets hold non-standard residues; d marks the D form. Ends that are not written are not given here. Peptide text beside a SMILES is read from it. pGlu = O=C1CC[C@@H](C(=O)O)N1

What was measured:
[1] = test system: C. gigas AKHR1-C; assay: Bioluminescence assay in CHO/G-16 cells expressing C. gigas AKHR1 splice variant C; assay type: cell-based, Crassostrea gigas
Text: (§1) We stably expressed all four cloned splice variants from C. gigas AKHR1 (Fig. 2) in Chinese Hamster Ovary (CHO) cells. These cells were also stably transfected with the promiscuous G protein, G-16, and transiently transfected with apoaequorin. An activation of the receptor by its ligand in these pretreated CHO cells would result in an IP3/Ca^2+ second messenger cascade, which could be measured as a bioluminescence signal.
(§2) CHO cells stably expressing the human G-protein 16 (CHO/G16) were maintained in DMEM/F-12 + GlutaMAX^TM (Life Technologies) medium with 200 μg/ml hygromycin B (Invitrogen), 5% fetal calf serum (FCS) (Life Technologies), 1% (v/v) glutaMAX (Life Technologies), 100 U/ml penicillin(Life Technologies), and 100 μg/ml streptomycin (Life Technologies). To express the AKH receptor, 5 × 10^4 CHO/G16 cells were transfected with 3 μg pIRES vector containing the AKH receptor insert using JetPEI® transfection reagent (Polyplus), while 3 μg empty pIRES vector was used as a control. All tested peptides were from Genemed Synthesis, Inc. and initially dissolved in demethylformamide (DMF) followed by dilution in PBS.

[2] = test system: C. gigas AKHR1-D; assay: Bioluminescence assay in CHO/G-16 cells expressing C. gigas AKHR1 splice variant D; assay type: cell-based, Crassostrea gigas
Text: as §1, §2

[3] = test system: C. gigas AKHR2; assay: Bioluminescence assay in CHO/G-16 cells expressing C. gigas AKHR2; assay type: cell-based, Crassostrea gigas
Experimental: as §2, with “This receptor, therefore, remains an orphan. CHO cells” for “CHO cells”, “in PBS. The purities of the peptides and peptide contents were determined by HPCL and mass spectrometry as supplied by Genemed Synthesis. The bioluminescence assay was performed as described earlier[9][30] using a Victor2 1420 Multilabel Counter (Perkin Elmer).” for “in PBS.”

[4] = biological target: C. gigas AKHR1-A (Magallana gigas, UniProt B1VCT5); assay: Bioluminescence assay in CHO/G-16 cells stably expressing C. gigas AKHR1-A (apoaequorin, IP3/Ca2+ cascade); assay type: cell-based, Crassostrea gigas; conditions: 10^−6 M peptide, CHO/G-16/AKHR1-A cells, Fig. 5A, n = 3
Text: as §1, §2

[5] = test system: Aplysia californica; conditions: injection into the slug; cited from earlier work
Text: Johnson et al.[34] have recently shown that an AKH is present in the sea slug Aplysia californica. […] These findings are difficult to reconcile with our above considerations, but our own considerations are, of course, only hypothetical.

C. gigas AKHR1-A, sequence (B1VCT5 entry or part of it): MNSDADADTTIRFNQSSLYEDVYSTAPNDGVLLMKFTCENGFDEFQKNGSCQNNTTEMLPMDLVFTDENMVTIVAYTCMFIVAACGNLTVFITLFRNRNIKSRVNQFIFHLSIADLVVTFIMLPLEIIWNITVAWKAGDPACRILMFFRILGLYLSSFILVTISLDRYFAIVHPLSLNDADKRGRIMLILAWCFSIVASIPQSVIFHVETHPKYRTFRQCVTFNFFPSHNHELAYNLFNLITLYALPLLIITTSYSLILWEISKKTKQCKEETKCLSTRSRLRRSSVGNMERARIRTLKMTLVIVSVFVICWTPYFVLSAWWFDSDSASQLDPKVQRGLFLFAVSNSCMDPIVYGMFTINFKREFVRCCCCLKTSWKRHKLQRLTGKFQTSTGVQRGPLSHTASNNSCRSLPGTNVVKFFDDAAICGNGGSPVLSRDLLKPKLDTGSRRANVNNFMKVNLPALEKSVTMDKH

| Molecule | Activation of AKHR1 splice variant C [1] | Activation of AKHR1 splice variant D [2] | Activation of AKHR2 [3] | Bioluminescence response (activation) of AKHR1-A [4] | Effect on defecation [5] | Effect on feeding [5] | Influence on hemolymph glucose concentrations [5] |
| --- | --- | --- | --- | --- | --- | --- | --- |
| CC(C)[C@H](NC(=O)[C@@H]1CCC(=O)N1)C(=O)N[C@@H](CO)C(=O)N[C@@H](Cc1ccccc1)C(=O)N[C@@H](CO)C(=O)N[C@H](C(=O)N[C@@H](CC(N)=O)C(=O)N[C@@H](Cc1c[nH]c2ccccc12)C(=O)NCC(=O)N[C@@H](CO)C(N)=O)[C@@H](C)O [C. gigas AKH] ([pGlu]VSFSTNWGS-NH2) | could not be activated | could not be activated | could not be activated | can be activated | – | – | – |
| Dm-CCAP: D. melanogaster crustacean cardioactive peptide (PFCNAFTGC; ends and bridges not checked; cysteine pairing not given here; UniProt Q9VCW0 52-60, looked up) | – | – | – | not active | – | – | – |
| pQIHFSPDWGTamide [Aplysia californica AKH, molluscan true AKH of the sea slug] | – | – | – | – | induce defecation | reduce feeding | no influence |
